In publication PMC12250763, “Synergistic and Antagonistic Mechanisms of Arctium lappa L. Polyphenols on Human Neutrophil Elastase Inhibition: Insights from Molecular Docking and Enzymatic Kinetics” (Molecules, 2025):

Target: T1, human neutrophil elastase (HNE) (Homo sapiens, UniProt P08246)
T1 construct: gene ELANE
T1 sequence (P08246 30-247): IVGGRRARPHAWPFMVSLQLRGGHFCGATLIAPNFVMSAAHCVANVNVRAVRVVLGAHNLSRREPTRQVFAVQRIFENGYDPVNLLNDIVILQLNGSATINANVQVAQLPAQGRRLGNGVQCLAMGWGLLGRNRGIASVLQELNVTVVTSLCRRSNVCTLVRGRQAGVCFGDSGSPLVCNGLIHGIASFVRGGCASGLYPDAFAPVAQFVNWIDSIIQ
Experiment: chromogenic elastase assay (MeOSuc-AAPV-pNA, […] nm), dose-response
Type: biochemical

Row | IC50 [µM] | SMILES
1 | 171 | O=C(/C=C/c1ccc(O)c(O)c1)O[C@@H]1C[C@](O)(C(=O)O)C[C@@H](OC(=O)/C=C/c2ccc(O)c(O)c2)[C@H]1O [Iso A, isochlorogenic acid A]
2 | 203 | O=C(/C=C/c1ccc(O)c(O)c1)O[C@@H]1C[C@](O)(C(=O)O)C[C@@H](O)[C@H]1O [Cha, chlorogenic acid]
